Assay results reported in paper PMC7876048, “Mutant-selective degradation by BRAF-targeting PROTACs” (Nature Communications, 2021).

Key:
ARAF = molecular target: T1, ARAF (Homo sapiens, UniProt P10398); assay: Radiolabeled kinase assay (Reaction Biology); type: biochemical
T1 construct: purchased Reaction Biology Corps
Procedure: (§1) Kinase assays were performed by Reaction Biology Corps by their protocol in duplicate using Km amounts of ATP calculated for each kinase.

BRAF (BRAF^WT) = molecular target: T2, BRAF (BRAF^WT) (Homo sapiens, UniProt P15056); assay: Radiolabeled kinase assay (Reaction Biology); type: biochemical
T2 construct: purchased Reaction Biology Corps
T2 sequence (P15056 whole entry): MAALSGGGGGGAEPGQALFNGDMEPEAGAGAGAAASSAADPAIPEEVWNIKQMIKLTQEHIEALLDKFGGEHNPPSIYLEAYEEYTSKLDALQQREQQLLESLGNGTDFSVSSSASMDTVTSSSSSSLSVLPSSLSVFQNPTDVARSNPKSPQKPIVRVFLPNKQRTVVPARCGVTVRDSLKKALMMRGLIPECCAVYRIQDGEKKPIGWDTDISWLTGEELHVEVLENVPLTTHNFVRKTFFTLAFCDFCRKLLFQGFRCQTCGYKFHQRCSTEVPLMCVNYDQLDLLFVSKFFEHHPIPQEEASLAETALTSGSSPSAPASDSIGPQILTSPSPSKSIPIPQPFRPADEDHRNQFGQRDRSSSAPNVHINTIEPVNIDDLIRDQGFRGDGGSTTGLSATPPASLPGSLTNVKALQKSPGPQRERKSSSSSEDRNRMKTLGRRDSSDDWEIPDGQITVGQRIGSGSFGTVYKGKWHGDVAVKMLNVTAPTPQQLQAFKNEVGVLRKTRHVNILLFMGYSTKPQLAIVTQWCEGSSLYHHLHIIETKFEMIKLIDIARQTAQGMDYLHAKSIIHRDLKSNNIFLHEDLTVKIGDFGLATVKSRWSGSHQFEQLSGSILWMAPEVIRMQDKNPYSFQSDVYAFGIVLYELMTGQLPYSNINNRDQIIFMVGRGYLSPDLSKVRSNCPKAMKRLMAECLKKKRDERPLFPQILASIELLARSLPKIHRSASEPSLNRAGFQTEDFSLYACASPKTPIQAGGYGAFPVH
Procedure: as §1

BRAF (G464V) = molecular target: T3, BRAF (G464V) (Homo sapiens, UniProt P15056, G464V); assay: Radiolabeled kinase assay (Reaction Biology); type: biochemical
T3 construct: purchased Reaction Biology Corps
T3 sequence (P15056 whole entry G464V): as the sequence (P15056 whole entry) above, with G464V counted along it
Procedure: as §1

BRAF (G469A) = molecular target: T4, BRAF (G469A) (Homo sapiens, UniProt P15056, G469A); assay: Radiolabeled kinase assay (Reaction Biology); type: biochemical
T4 construct: purchased Reaction Biology Corps
T4 sequence (P15056 whole entry G469A): as the sequence (P15056 whole entry) above, with G469A counted along it
Procedure: as §1

BRAF (K601E) = molecular target: T5, BRAF (K601E) (Homo sapiens, UniProt P15056, K601E); assay: Radiolabeled kinase assay (Reaction Biology); type: biochemical
T5 construct: purchased Reaction Biology Corps
T5 sequence (P15056 whole entry K601E): as the sequence (P15056 whole entry) above, with K601E counted along it
Procedure: as §1

BRAF (L597V) = molecular target: T6, BRAF (L597V) (Homo sapiens, UniProt P15056, L597V); assay: Radiolabeled kinase assay (Reaction Biology); type: biochemical
T6 construct: purchased Reaction Biology Corps
T6 sequence (P15056 whole entry L597V): as the sequence (P15056 whole entry) above, with L597V counted along it
Procedure: as §1

BRAF (V600A) = molecular target: T7, BRAF (V600A) (Homo sapiens, UniProt P15056, V600A); assay: Radiolabeled kinase assay (Reaction Biology); type: biochemical
T7 construct: purchased Reaction Biology Corps
T7 sequence (P15056 whole entry V600A): as the sequence (P15056 whole entry) above, with V600A counted along it
Procedure: as §1

BRAF (V600D) = molecular target: T8, BRAF (V600D) (Homo sapiens, UniProt P15056, V600D); assay: Radiolabeled kinase assay (Reaction Biology); type: biochemical
T8 construct: purchased Reaction Biology Corps
T8 sequence (P15056 whole entry V600D): as the sequence (P15056 whole entry) above, with V600D counted along it
Procedure: as §1

BRAF (V600K) = molecular target: T9, BRAF (V600K) (Homo sapiens, UniProt P15056, V600K); assay: Radiolabeled kinase assay (Reaction Biology); type: biochemical
T9 construct: purchased Reaction Biology Corps
T9 sequence (P15056 whole entry V600K): as the sequence (P15056 whole entry) above, with V600K counted along it
Procedure: as §1

CRAF = CRAF (Homo sapiens, UniProt P04049); assay: Radiolabeled kinase assay (Reaction Biology); type: biochemical
Chain of CRAF (P04049 whole entry): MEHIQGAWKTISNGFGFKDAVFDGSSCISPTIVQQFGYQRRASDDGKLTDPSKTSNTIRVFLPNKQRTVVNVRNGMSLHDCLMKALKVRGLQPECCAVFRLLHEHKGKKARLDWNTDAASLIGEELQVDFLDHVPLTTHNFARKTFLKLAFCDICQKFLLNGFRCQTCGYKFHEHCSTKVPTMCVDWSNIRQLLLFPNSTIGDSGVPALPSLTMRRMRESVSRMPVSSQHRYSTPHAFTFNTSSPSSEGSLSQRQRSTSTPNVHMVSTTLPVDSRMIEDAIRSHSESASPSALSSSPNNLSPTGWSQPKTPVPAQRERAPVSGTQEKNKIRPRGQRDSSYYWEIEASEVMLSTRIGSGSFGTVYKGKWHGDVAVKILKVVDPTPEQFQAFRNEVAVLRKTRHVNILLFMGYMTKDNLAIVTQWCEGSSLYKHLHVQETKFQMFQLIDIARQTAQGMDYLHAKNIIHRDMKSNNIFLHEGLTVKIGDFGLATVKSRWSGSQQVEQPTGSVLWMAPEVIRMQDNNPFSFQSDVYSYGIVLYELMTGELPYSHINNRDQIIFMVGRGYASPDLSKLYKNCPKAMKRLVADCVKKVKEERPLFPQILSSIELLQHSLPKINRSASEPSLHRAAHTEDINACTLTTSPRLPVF
Procedure: as §1

BRAF WT = molecular target: T10, BRAF WT (Homo sapiens, UniProt P15056); assay: Elisa kinase inhibition assay (Carna Biosciences); type: biochemical; conditions: Km ATP, duplicate
T10 construct: purchased Carna Biosciences
T10 sequence (P15056 whole entry): as the sequence (P15056 whole entry) above
Procedure: Kinase assays were performed by Carna Biosciences by their protocol in duplicate using Km amounts of ATP calculated for each kinase.

[1] = molecular target: T11, BRAF^G466V (CAL-12-T cells, homozygous, Class 3) (Homo sapiens, UniProt P15056, G466V); assay: BRAF degradation by immunoblot in CAL-12-T cells; type: cell-based
T11 construct: endogenous in cells; host or cells: CAL-12-T
T11 sequence (P15056 whole entry G466V): as the sequence (P15056 whole entry) above, with G466V counted along it
Procedure: (§2) Cells were plated in 6 well dishes (5 × 10^5–8 × 10^5 cells) and allowed to attach overnight. […] The plates were then placed on ice and washed 1x with chilled PBS and lysed in buffer containing 25 mM Tris-HCl [pH 7.4], 0.25% sodium deoxycholate, 150 mM NaCl, 1% Triton X-100, supplemented with protease inhibitors (1x Roche protease inhibitor cocktail) and phosphatase inhibitors (10 mM NaF, 1 mM Na3OV4, and 20 mM β-glycerophosphate). Lysates were then cleared at 21,000 g for 10 min at 4 °C. Protein concentrations of the supernatants were then quantified using a Pierce BCA Protein Assay. 12–40 µg of protein were separated using a gradient (4–20%) Criterion TGX precast gel and transferred unto a nitrocellulose membrane. The membranes were then blocked in 5% non-fat milk in TBST (Tris-buffered Saline with Tween 20) for 1 h before probing with the indicated primary antibody overnight. Membranes were imaged using Bio-Rad Image Lab software using ECL prime detection reagent (GE Healthcare, RPN2232 or ThermoScientific, 34095).
(§3) Western blot data was quantified by using the band feature in Image Lab, and values were averaged and analyzed in GraphPad Prism. DC50 and DMAX values were fitted using a three parameter [inhibitor] versus response and reported directly from the Prism output. Mean ± SD and unpaired t-tests were performed in GraphPad Prism.

[2] = molecular target: T12, BRAF^G466V (H1666 cells, heterozygous, Class 3) (Homo sapiens, UniProt P15056, G466V); assay: BRAF degradation by immunoblot in H1666 cells; type: cell-based
T12 construct: endogenous in cells; host or cells: H1666
T12 sequence (P15056 2-766 G466V): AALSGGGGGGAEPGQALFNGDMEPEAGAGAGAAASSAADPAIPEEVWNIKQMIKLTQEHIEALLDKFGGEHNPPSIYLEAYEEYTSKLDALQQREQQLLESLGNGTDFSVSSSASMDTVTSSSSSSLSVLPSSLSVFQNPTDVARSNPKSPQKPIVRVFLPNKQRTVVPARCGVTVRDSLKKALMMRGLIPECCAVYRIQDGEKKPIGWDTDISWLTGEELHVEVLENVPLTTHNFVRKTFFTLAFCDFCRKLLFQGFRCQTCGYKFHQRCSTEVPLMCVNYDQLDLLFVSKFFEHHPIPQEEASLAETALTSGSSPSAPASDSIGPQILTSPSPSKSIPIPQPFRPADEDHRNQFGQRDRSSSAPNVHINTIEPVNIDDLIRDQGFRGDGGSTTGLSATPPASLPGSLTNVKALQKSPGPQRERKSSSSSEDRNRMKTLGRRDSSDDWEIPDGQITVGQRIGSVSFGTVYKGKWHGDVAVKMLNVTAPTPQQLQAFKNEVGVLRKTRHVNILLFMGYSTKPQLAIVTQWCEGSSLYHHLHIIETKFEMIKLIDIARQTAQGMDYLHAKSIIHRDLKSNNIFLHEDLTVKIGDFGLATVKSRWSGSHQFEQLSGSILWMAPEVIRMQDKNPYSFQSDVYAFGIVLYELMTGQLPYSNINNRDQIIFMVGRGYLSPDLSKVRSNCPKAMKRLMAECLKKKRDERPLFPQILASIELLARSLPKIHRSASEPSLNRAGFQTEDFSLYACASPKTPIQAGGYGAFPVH
Procedure: as §2, §3

[3] = molecular target: T13, BRAF^WT (A-431 cells, HER1 amplification) (Homo sapiens, UniProt P15056); assay: BRAF^WT degradation by immunoblot in A-431 cells; type: cell-based
T13 construct: endogenous in cells; host or cells: A-431
T13 sequence (P15056 whole entry): as the sequence (P15056 whole entry) above
Procedure: as §2, §3

[4] = molecular target: T14, BRAF^WT (SK-BR-3 cells, HER2 amplification) (Homo sapiens, UniProt P15056); assay: BRAF^WT degradation by immunoblot in SK-BR-3 cells; type: cell-based
T14 construct: endogenous in cells; host or cells: SK-BR-3
T14 sequence (P15056 whole entry): as above
Procedure: as §2, §3

[5] = tested on: BRAF (SK-MEL-239 cells, heterozygous BRAF^V600E); assay: BRAF degradation by immunoblot in SK-MEL-239 cells; type: cell-based
Procedure: as §2, §3

[6] = tested on: BRAF^WT : Cullin-2 association (NIH3T3 cells); assay: V5-BRAF immunoprecipitation, Cullin 2 association; type: cell-based; conditions: MEK inhibitor (1 µM cobimetinib, 2 h) pretreated NIH3T3 cells
Procedure: Doxycycline-induced NIH3T3 cells or 293 T-Rex cells that express indicated BRAF isoform were seeded in 10 cm dishes overnight. […] Cells were then placed on ice, washed with ice-cold 1X PBS, and lysed in 500 µL modified 1X lysis buffer (50 mM Tris-HCl, pH 7.4, 0.15 M NaCl, 1 mM EDTA, 1% NP40, 10% glycerol) containing 5 mM 1,10-phenanthroline monohydrate, 10 mM N-ethylmaleimide, 20 µM PR-619, and 1X protease inhibitor cocktail (Roche). Lysates were spun down at 14,000 × g at 4 °C for 10 min. Equal amounts of lysate was aliquoted onto 20 µL (bed volume) of anti-V5-beads (Sigma, A7345). V5-containing proteins were immunoprecipitated from lysates for 2 h at 4 °C with gentle rotation, after which samples were spun down at 6000 × g at 4 °C for 2 min and the beads were washed 4 times with DPBS. Beads were resuspended in 1X lithium dodecyl sulfate (LDS) sample buffer containing 5% 2-mercaptoethanol (ß-ME). Immunoprecipitated protein was eluted off the beads by heating at 95 °C for 5 min and the supernatant was run on an SDS-PAGE gel and evaluated for the presence of immunoprecipitated V5-tagged proteins, as well as Cullin 2. Input refers to the normalized input lysate loaded onto V5-sepharose beads.

[7] = tested on: SK-MEL-239 C4 cells (BRAF^WT/BRAF-p61^V600E); assay: Cell proliferation (MTS) assay; type: cell-based; conditions: 5 days
[8] = tested on: H1666 cells (Class 3, BRAF^G466V); assay: Cell proliferation (MTS) assay; type: cell-based; conditions: 5 days
p-ERK (CAL-12-T cells) = assay: p-ERK inhibition by immunoblot in CAL-12-T cells; type: cell-based
Procedure: as §2, §3

[9] = 1 μM cobimetinib pre-treatment 1 hour, then 1 μM SJF-0628

T1 sequence (P10398 whole entry): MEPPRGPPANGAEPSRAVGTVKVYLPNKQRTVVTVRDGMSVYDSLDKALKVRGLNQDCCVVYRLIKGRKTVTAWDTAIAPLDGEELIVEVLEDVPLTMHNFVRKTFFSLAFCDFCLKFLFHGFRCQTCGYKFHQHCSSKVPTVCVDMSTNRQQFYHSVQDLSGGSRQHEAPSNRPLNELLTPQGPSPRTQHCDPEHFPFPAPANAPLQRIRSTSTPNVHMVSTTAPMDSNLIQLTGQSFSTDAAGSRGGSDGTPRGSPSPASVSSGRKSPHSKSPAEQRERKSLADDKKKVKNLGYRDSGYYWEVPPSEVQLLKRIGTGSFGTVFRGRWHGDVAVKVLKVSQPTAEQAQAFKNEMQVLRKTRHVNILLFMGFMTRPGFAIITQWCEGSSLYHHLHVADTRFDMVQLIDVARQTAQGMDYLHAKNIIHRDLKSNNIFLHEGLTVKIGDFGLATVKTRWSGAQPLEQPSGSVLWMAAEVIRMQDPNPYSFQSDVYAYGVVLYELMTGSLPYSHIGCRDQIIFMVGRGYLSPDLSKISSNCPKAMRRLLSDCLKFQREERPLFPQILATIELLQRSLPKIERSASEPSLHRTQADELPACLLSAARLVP

Q: With `CCCS(=O)(=O)Nc1ccc(F)c(C(=O)c2c[nH]c3ncc(-c4ccc(N5CCN(CC(=O)NC(C(=O)N6CC(O)CC6C(=O)NCc6ccc(-c7scnc7C)cc6)C(C)(C)C)CC5)cc4)cc23)c1F` (stereo not shown) [SJF-0628] as the compound, how does the IC50 (ARAF) read?
A: Its IC50 is 0.27 nM.

Q: What about the IC50 (BRAF (BRAF^WT)) of the same compound?
A: Its IC50 is 5.8 nM.

Q: What about the IC50 (BRAF (G464V)) of the same compound?
A: Its IC50 is 9.18 nM.

Q: What about the IC50 (BRAF (G469A)) of the same compound?
A: The IC50 was 0.98 nM.

Q: What about the IC50 (BRAF (K601E)) of the same compound?
A: The IC50 was 7.84 nM.

Q: What about the IC50 (BRAF (L597V)) of the same compound?
A: Its IC50 is 16 nM.

Q: And the IC50 (BRAF (V600A))?
A: Its IC50 is 1.06 nM.

Q: And the IC50 (BRAF (V600D))?
A: The IC50 was 2.68 nM.

Q: What about the IC50 (BRAF (V600K)) of the same compound?
A: The IC50 was 0.49 nM.

Q: And the IC50 (CRAF)?
A: The IC50 was 37.6 nM.

Q: And the IC50 (BRAF WT)?
A: Its IC50 is 39.2 nM.

Q: And the DC50 [1]?
A: The DC50 was 23 nM.

Q: What about the Dmax [1] of the same compound?
A: Its Dmax is over 90%.

Q: And the DC50 [2]?
A: Its DC50 is 29 nM.

Q: And the Dmax ([2]; NCI-H1666)?
A: Its Dmax is over 80%.

Q: What about the “degradation of BRAF^WT” value ([3]; A-431 cells, PROTAC concentrations greater than 1 µM) of the same compound?
A: The value was ~ 30%.

Q: And the “PROTAC-dependent degradation of BRAF^WT” value ([3]; GDC-0623 pre-treatment (500 nM, 3 h), SJF-0628 20 h, A431 (also OVCAR-8, SK-BR-3))?
A: The value was “minimal PROTAC-dependent degradation”.

Q: And the “time at which complete degradation of BRAF^WT observed” value [4, 9]?
A: The value was 12 h.

Q: What about the “time to PROTAC-induced degradation of BRAF^WT” value [4, 9] of the same compound?
A: Its value is at most 4 h.

Q: What about the “degradation of BRAF^WT” value ([4]; PROTAC concentrations greater than 1 µM) of the same compound?
A: The value was ~ 50%.

Q: And the “SJF-0628-dependent BRAF^WT degradation” value ([4]; lapatinib 2-hour pre-treatment)?
A: The value was 10%.

Q: And the “SJF-0628-dependent BRAF^WT degradation” value ([4]; without lapatinib pre-treatment)?
A: Its value is 48%.

Q: And the BRAF degradation [5]?
A: Its BRAF degradation is “minimal BRAF degradation”.

Q: And the “increase in PROTAC-induced Cullin-2 association with BRAF^WT” value [6]?
A: The value was 4 fold.

Q: And the EC50 ([7]; 120 h, read-out: EC50, cell growth)?
A: Its EC50 is 218 nM.

Q: And the “decrease in cell growth” value [7]?
A: Its value is ~ 80%.

Q: What about the cell growth inhibition [8] of the same compound?
A: Its cell growth inhibition is 65%.

Q: What about the “inhibition of p-ERK” value (p-ERK (CAL-12-T cells)) of the same compound?
A: Its value is over 70%.
